Patent publication US11078158B2, “(+)-3-(2,3-difluorophenyl)-3-methoxypyrrolidine or pharmaceutically acceptable salts thereof, a process for preparation thereof and uses thereof” (INTEGRATIVE RESEARCH LABORATORIES SWEDEN AB, priority 2017, dated 2021)

Experiments:
[1] = Regular water solubility test; format: physicochemical; details: thermodynamic from solid, room temperature
Description: Water solubility tests for the salts as described herein were performed as follows unless otherwise stated. 0.05 g of each salt was weighed in a flask and the mass of flask+salt (m-vs) was recorded. Water was slowly added dropwise into the flask with salt until full dissolution was achieved as observed by the naked eye. The mass of flask+salt+solvent (m-sys) was recorded.
(s) stands for the weight of the salt measured in kg,
(m-sys) stands for the mass of the flask+salt+solvent measured in kg, and
(m-vs) stands for the mass of the flask+salt measured in kg.

[2] = Flask method water solubility test; format: physicochemical; details: saturated solution equilibrated at least 24 hours, room temperature
Description: In some cases, a further water solubility test (Flask method water solubility test) was performed as follows. An excess of salt was added to water. The mixture was equilibrated (shaking) for at least 24 hours thereby providing a saturated salt solution. Then the saturated solution was clear-filtered and transferred into a clean pre-weighed flask (mv). The mass of flask+saturated solution (mvs) was recorded. The solvent was evaporated under reduced pressure until constant mass. Flask containing dried residue was weighed (mvdr). The solubility expressed as “grams of solute/kg of solvent”, i.e. “grams of salt/kg of solvent”, was calculated according to the equation: […]
(mvdr-mv) is the weight difference in kg between (i) the mass of the flask containing dried residue after evaporation of the solvent and (ii) the mass of the flask, and
(mvs-mvdr) is the weight difference in kg between (i) the mass of the flask including the saturated salt solution and (ii) the mass of the flask containing the dried residue.

[3] = Hygroscopicity test; format: physicochemical; details: 30° C., one week; for hygroscopicity (in words): any tested relative humidity
Description: Hygroscopicity tests of the salts were performed by keeping exact weight samples of the different salts at varied humidity at 30° C. After one week, the samples were weighed again and based on the original weight the percentage weight difference was calculated.
In the followed hygroscopicity test, the change in weight was measured after each acidic salt of (+)-3-(2,3-difluorophenyl)-3-methoxypyrrolidine was exposed for a week under the condition of 30° C. and different relative humidities (RH) 0 to 97%.

[4] = target: T1, human sigma 1 receptor (Homo sapiens, UniProt Q99720); assay: In vitro competition binding assay, human sigma 1 receptor; details: 1.0 E-5 M test compound, 15 nM [3H] pentazocine, duplicate, mean value; read-out: Percent inhibition of the control radioligand specific binding
T1 construct: Cell membrane homogenates (150 μg protein) were incubated for 120 min at 37° C. with 15 nM; endogenous in cells; inferred to be Jurkat human T lymphocytes from the cited method (Ganapathy et al. 1999)
T1 sequence (Q99720 whole entry): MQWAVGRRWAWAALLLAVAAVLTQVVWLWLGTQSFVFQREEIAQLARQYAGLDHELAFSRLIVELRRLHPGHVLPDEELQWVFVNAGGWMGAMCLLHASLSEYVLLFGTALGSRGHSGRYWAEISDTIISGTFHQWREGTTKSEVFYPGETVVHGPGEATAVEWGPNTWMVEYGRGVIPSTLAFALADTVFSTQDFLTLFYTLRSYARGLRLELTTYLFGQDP
Description: The binding affinity of the fumaric acid salt of (+)-3-(2,3-difluorophenyl)-3-methoxypyrrolidine at the human sigma 1 receptor was determined by a competition binding assay similar to what is described in […], M. E., PRASAD, P. D., HUANG, W., SETH, P., LEIBACH, F. H. and […], V. (1999), Molecular and ligand-binding characterization of the σ-receptor in the Jurkat human T lymphocyte cell line, J. Pharmacol. Exp. Ther., 289: 251.
Cell membrane homogenates (150 μg protein) were incubated for 120 min at 37° C. with 15 nM [^3H] pentazocine in the absence or presence of the test compound in a buffer containing 50 mM Tris-HCl (pH 8).
Nonspecific binding was determined in the presence of 10 μM haloperidol.
Following incubation, the samples were filtered under vacuum through glass fiber filters (GF/B, Packard) presoaked with 0.3% PEI and rinsed several times with ice-cold 50 mM Tris-HCl using a 96-sample cell harvester (Unifilter, Packard). The filters were dried then counted for radioactivity in a scintillation counter (Topcount, Packard) using a scintillation cocktail (Microscint 0, Packard).
The results were expressed as a percent inhibition of the control radioligand specific binding.
The standard reference compound was haloperidol, which was tested in each experiment at several concentrations to obtain a competition curve from which its IC50 value was calculated. […]

[5] = Crystalline phase at tested relative humidity; format: physicochemical; details: any tested relative humidity

Structure (SMILES) | solubility [1] [mg/mL] | solubility ([2]; water, thermodynamic from solid) [mg/mL] | hygroscopicity (in words) ([3]; listed as Example 11) | hygroscopicity (in words) ([3]; listed as salt of Formula IIb) | Weight difference (%) ([3]; relative humidity 0%) | Weight difference (%) ([3]; relative humidity 6%) | Weight difference (%) ([3]; relative humidity 11%) | Weight difference (%) ([3]; relative humidity 22%) | Weight difference (%) ([3]; relative humidity 32%) | Weight difference (%) ([3]; relative humidity 43%) | Weight difference (%) ([3]; relative humidity 56%) | Weight difference (%) ([3]; relative humidity 73%) | Weight difference (%) ([3]; relative humidity 84%) | Weight difference (%) ([3]; relative humidity 97%) | inhibition at 10 µM [4] [%] | change of crystalline phase with humidity (in words) [5] | Solubility in water (Flask method water solubility test) [2] [mg/mL]
CO[C@]1(c2cccc(F)c2F)CCNC1.O=C(O)/C=C/C(=O)O [Example 7, fumarate Salt of (+)-3-(2,3-difluorophenyl)-3-methoxypyrrolidine] | 34 | 74.1 | does not adsorb or desorb water at any humidity | not being hygroscopic | −0.07 | −0.14 | 0.11 | 0.15 | 0.13 | 0.07 | 0.19 | 0.06 | 0.00 | 0.16 | 79.1 | not changing in its crystalline phase at any tested relative humidity | 
COC1(c2cccc(F)c2F)CCNC1.Cl (stereo not drawn) [Example 8, Hydrochloric Acid Salt of (+)-3-(2,3-difluorophenyl)-3-methoxypyrrolidine] |  |  |  |  | 0.00 | −0.07 | −0.06 | −0.15 | 0.00 | −0.13 | −0.14 | −0.13 | 25.77 | 99.12 |  |  | 
COC1(c2cccc(F)c2F)CCNC1.O=C(O)C(O)C(O)C(=O)O [Example 9, L-Tartaric acid salt of (+)-3-(2,3-difluorophenyl)-3-methoxypyrrolidine] |  |  |  |  | −2.36 | −0.67 | −0.14 | 2.40 | 2.16 | 1.71 | 1.99 | 1.90 | 2.13 | 2.39 |  |  | 
COC1(c2cccc(F)c2F)CCNC1.O=C(O)C[C@H](O)C(=O)O [Example 13, L-Malic Acid Salt of (+)-3-(2,3-difluorophenyl)-3-methoxypyrrolidine] |  |  |  |  | −0.07 | 0.00 | −0.13 | −0.08 | 0.00 | −0.22 | −0.06 | 0.07 | 0.40 | 34.37 |  |  | 
COC1(c2cccc(F)c2F)CCNC1.O=C(O)C(=O)O (stereo not drawn) [Reference Example 19, oxalic Acid Salt of (+)-3-(2,3-difluorophenyl)-3-methoxypyrrolidine, reference compound] |  |  |  |  | 0.00 | 0.00 | −0.21 | 0.00 | 0.11 | −0.05 | 0.00 | −0.05 | −0.15 | 0.26 |  |  | 28
